Active and inactive are the calls of the source.
What was measured:
[1] = target: T1, Aminopeptidase N (Plasmodium falciparum FcB1/Columbia, UniProt O96935); test: P. falciparum M1AAP inhibitors, biochemical, fluorogenic H-Leu-NHMec substrate, 1536-well (AID 1445); parameters: species or system Plasmodium falciparum 3D7, 3D7
T1 sequence (O96935 whole entry): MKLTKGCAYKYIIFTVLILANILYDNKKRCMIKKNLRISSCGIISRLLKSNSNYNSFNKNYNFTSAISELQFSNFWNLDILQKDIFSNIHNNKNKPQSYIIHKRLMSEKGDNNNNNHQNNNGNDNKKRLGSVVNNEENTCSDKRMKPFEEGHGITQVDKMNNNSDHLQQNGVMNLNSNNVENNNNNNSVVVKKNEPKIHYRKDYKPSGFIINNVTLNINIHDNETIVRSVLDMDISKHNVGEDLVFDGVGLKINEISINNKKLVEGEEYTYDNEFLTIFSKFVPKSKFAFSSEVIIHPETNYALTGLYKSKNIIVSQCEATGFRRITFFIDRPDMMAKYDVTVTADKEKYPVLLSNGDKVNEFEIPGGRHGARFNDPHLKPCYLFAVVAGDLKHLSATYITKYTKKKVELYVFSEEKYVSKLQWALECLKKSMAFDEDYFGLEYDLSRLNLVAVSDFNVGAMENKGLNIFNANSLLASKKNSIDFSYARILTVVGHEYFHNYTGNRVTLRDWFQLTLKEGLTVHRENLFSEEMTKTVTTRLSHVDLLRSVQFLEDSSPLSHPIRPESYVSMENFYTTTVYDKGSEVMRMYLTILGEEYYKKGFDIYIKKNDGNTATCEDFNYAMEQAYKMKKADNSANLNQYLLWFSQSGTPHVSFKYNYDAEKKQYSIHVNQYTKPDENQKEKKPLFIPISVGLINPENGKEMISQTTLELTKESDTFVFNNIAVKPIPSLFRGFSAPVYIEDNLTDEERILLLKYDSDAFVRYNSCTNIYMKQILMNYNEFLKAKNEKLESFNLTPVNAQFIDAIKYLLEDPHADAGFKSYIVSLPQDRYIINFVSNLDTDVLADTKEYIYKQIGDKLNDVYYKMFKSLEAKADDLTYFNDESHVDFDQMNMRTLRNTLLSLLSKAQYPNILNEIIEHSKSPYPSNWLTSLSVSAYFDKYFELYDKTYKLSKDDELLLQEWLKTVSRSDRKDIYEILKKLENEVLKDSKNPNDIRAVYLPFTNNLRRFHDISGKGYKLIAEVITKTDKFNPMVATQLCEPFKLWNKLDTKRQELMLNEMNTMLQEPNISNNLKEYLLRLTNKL

[2] = target: Large T antigen (Simian virus 40, UniProt P03070); type: functional, Betapolyomavirus macacae;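 note: Confirmatory-stage PubChem screen for compounds that inhibit SV40 T antigen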
Large T antigen, sequence (P03070 whole entry): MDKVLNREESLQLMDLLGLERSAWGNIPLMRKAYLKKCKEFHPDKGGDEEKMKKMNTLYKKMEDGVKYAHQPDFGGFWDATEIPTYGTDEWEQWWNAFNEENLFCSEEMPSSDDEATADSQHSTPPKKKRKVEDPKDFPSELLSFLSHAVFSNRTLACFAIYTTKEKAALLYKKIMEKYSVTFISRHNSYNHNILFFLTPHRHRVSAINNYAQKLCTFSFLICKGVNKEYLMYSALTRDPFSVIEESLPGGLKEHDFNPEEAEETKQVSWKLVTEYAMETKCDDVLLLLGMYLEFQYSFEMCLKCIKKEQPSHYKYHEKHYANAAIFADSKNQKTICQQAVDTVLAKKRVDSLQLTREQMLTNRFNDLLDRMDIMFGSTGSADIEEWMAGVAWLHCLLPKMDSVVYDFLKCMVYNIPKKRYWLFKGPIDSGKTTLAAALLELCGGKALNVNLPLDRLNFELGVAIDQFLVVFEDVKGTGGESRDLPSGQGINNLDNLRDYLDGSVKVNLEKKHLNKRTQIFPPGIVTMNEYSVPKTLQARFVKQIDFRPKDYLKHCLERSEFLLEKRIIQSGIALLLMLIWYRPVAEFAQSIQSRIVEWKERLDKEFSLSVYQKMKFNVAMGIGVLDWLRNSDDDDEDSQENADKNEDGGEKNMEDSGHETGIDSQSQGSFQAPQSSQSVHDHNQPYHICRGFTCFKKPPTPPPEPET

[3] = target: E3 ubiquitin-protein ligase XIAP (Homo sapiens, UniProt P98170); test: Counter Screen using XIAP-Bir3 for Chemical Antagonists of Bir1/2 domains of IAP-family anti-apoptotic proteins. [Related pubchem assays (depositor defined):AID1018, AID1449, AID1514, AID1638, AID1749, AID1750, AID488957, AID488963]
E3 ubiquitin-protein ligase XIAP, sequence (P98170 whole entry): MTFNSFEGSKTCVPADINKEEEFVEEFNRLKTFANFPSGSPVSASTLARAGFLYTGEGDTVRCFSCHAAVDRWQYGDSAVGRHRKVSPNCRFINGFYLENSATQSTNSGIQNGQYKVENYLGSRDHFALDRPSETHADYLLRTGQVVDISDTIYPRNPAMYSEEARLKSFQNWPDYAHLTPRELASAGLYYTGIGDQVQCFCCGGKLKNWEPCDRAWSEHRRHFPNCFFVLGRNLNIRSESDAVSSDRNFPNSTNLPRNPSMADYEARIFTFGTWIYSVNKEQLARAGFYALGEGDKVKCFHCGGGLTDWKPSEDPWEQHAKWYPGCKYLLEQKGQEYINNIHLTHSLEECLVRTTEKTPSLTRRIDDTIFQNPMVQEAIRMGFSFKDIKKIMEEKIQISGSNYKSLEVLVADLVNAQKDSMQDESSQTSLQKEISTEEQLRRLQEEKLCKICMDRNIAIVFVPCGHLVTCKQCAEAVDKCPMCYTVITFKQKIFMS

[4] = target: Bifunctional protein GlmU (Mycobacterium tuberculosis, UniProt P9WMN3); test: Inhibitors of Mycobacterial Glucosamine-1-phosphate acetyl transferase (GlmU). Secondary screen.; parameters: species or system Mycobacterium tuberculosis H37Rv
Bifunctional protein GlmU, sequence (P9WMN3 whole entry): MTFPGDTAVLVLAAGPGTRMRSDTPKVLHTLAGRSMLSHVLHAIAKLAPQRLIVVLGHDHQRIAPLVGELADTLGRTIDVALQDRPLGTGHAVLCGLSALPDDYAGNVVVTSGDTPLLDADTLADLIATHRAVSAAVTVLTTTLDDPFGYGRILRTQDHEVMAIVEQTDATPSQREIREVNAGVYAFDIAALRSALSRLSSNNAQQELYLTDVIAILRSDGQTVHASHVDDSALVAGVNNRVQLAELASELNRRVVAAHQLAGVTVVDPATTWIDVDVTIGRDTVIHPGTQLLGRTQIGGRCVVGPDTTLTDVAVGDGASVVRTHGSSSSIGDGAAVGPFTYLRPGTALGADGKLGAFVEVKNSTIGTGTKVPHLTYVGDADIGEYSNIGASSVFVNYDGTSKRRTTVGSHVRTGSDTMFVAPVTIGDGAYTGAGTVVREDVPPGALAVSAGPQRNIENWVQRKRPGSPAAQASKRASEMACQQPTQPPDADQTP

[5] = target: Keap1/Nrf2 (Homo sapiens, UniProt Q14145); test: Keap1-Nrf2 protein-protein interaction inhibitors, dose response, biochemical, fluorescence polarization, cherry-picked samples (AID 588683)
Keap1/Nrf2, sequence (Q16236 whole entry): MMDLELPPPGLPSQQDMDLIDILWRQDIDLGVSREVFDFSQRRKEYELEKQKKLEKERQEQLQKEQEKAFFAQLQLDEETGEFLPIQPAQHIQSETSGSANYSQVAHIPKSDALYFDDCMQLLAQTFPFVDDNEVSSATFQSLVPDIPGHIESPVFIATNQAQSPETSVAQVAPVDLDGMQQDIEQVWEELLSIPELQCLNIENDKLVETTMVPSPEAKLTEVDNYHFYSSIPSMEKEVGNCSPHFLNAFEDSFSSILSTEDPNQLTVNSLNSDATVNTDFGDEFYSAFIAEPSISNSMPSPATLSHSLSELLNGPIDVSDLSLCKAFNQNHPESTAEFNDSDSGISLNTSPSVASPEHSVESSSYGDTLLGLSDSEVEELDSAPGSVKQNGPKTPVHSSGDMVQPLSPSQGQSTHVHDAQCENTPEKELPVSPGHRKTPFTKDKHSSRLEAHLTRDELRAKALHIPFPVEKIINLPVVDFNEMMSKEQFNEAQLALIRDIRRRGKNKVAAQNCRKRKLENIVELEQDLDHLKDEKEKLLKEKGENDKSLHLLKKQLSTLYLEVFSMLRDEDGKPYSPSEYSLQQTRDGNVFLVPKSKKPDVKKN
Keap1/Nrf2, sequence (Q14145 whole entry): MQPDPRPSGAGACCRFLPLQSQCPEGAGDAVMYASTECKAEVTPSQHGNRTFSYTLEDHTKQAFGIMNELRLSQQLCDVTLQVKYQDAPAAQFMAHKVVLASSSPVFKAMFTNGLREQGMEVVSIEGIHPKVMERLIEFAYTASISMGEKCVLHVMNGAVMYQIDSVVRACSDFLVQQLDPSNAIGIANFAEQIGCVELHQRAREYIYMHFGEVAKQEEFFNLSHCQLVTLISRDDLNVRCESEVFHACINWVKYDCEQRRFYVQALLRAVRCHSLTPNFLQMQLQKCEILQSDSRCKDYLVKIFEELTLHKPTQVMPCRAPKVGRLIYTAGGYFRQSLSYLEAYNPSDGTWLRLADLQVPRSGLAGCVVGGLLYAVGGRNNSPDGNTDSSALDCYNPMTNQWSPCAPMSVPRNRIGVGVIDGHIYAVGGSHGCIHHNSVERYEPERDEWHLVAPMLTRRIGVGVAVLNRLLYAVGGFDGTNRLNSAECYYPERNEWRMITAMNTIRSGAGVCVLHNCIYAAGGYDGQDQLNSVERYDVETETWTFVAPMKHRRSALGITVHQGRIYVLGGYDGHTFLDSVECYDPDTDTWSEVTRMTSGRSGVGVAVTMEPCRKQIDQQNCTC

[6] = target: Genome polyprotein (dengue virus type 2, UniProt P29990); test: Dengue-2 NS5 methyltransferase inhibitors, primary screen, biochemical, confirmation dose response (AID 588689); type: functional
Genome polyprotein, sequence (P29990 2492-3391 limits assumed): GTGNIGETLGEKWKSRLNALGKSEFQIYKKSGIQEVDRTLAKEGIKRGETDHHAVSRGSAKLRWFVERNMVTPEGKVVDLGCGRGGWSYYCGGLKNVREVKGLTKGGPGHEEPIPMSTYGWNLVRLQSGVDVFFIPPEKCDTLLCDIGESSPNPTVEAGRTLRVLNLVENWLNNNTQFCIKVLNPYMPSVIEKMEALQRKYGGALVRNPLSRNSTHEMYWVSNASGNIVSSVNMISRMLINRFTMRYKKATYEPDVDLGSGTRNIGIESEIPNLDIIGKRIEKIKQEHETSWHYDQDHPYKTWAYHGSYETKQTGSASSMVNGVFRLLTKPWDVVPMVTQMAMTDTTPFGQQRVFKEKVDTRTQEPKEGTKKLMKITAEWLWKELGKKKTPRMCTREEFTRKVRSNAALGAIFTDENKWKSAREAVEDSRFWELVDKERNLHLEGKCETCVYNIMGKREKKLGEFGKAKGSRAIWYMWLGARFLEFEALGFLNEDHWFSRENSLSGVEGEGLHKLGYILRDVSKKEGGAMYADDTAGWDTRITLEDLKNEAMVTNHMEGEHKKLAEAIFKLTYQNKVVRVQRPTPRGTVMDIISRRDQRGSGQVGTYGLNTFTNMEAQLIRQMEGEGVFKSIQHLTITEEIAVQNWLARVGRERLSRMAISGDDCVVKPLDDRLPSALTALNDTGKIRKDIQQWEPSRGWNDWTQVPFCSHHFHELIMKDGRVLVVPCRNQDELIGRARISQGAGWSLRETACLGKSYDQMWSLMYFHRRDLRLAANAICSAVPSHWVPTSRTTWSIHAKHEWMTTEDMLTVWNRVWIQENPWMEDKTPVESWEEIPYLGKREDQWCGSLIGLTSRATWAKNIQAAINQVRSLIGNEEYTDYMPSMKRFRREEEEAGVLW

[7] = target: T2, Histone-lysine N-methyltransferase NSD2 (Homo sapiens, UniProt O96028); type: biochemical
T2 sequence (O96028 whole entry): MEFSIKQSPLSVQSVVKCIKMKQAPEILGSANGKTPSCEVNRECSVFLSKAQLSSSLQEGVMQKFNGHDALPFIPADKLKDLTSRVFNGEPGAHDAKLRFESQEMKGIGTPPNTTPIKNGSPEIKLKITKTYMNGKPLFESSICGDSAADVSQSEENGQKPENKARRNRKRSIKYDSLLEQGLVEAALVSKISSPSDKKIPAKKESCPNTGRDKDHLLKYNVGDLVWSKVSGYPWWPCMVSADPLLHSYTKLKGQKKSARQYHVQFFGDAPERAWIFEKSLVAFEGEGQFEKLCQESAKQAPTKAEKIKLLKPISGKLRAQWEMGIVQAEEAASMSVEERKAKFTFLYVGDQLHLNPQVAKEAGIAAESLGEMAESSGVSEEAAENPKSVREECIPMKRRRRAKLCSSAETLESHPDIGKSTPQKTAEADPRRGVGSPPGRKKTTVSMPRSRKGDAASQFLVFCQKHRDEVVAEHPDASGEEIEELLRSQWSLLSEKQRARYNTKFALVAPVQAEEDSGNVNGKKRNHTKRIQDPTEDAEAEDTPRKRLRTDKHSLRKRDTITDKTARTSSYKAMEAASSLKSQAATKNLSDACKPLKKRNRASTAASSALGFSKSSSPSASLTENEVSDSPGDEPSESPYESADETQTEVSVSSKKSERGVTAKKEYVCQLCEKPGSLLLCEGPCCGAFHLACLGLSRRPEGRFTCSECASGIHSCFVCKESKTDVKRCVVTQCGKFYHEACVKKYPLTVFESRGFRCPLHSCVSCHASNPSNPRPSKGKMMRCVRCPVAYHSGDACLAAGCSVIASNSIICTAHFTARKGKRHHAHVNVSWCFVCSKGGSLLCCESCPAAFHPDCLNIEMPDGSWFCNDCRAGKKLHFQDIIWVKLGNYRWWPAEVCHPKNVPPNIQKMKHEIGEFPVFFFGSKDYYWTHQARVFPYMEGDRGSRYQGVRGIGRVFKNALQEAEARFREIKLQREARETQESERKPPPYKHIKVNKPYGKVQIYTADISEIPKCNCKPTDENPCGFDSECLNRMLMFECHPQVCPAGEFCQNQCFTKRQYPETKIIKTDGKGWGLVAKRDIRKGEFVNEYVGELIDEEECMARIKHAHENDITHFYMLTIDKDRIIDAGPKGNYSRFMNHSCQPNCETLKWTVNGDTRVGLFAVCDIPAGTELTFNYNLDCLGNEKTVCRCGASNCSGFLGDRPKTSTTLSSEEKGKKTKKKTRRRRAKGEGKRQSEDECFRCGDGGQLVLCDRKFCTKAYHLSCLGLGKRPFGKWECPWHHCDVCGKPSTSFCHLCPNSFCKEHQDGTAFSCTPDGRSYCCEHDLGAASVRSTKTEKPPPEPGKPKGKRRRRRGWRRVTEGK

[8] = target: Ubiquitin carboxyl-terminal hydrolase BAP1 (Homo sapiens, UniProt Q92560); test: BAP1 deubiquitinase inhibitors, dose response, biochemical (AID 714); type: functional
Ubiquitin carboxyl-terminal hydrolase BAP1, sequence (Q92560 whole entry): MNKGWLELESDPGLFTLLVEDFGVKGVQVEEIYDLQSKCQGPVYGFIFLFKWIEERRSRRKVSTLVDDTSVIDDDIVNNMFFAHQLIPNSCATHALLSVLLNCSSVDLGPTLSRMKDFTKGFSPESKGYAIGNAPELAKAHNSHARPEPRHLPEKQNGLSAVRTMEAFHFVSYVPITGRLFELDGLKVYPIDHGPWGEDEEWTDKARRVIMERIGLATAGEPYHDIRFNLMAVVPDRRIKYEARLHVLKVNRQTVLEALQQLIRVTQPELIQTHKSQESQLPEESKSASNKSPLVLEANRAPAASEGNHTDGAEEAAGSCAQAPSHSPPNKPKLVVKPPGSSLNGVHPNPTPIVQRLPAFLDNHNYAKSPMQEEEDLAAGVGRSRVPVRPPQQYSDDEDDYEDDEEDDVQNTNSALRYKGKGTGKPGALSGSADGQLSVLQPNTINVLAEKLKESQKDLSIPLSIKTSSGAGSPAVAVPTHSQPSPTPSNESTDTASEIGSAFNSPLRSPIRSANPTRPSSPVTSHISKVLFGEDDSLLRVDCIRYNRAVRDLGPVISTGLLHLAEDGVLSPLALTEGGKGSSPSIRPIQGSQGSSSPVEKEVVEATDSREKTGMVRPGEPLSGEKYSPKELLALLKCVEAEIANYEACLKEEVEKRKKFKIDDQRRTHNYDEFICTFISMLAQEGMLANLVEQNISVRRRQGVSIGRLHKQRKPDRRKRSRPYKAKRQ

[9] = system: CHO-K1; test: (§1) Counterscreen for antagonists of the orexin 1 receptor (OX1R; HCRTR1): Homogeneous time resolved fluorescence (HTRF)-based cell-based dose response assay to identify antagonists of the parental CHO-K1 cell line. [Related pubchem assays (depositor defined):AID434989, AID435008, AID463079, AID485270, AID492963, AID492964, AID492965, AID493232, AID504699, AID504701]; type: functional; settings: Cricetulus griseus
[10] = as §1, with “Fluorescence-based” for “Homogeneous time resolved fluorescence (HTRF)-based”, “cell-based high throughput” for “cell-based”, “CHO” for “CHO-K1”; type: functional
[11] = target: DNA dC->dU-editing enzyme APOBEC-3G (Homo sapiens, UniProt Q9HC16); test: Dose Response confirmation of small molecule APOBEC3G DNA Deaminase Inhibitors via a fluorescence-based single-stranded DNA deaminase assay. [Related pubchem assays (depositor defined):AID493012, AID493028]; type: functional
DNA dC->dU-editing enzyme APOBEC-3G, sequence (Q9HC16 whole entry): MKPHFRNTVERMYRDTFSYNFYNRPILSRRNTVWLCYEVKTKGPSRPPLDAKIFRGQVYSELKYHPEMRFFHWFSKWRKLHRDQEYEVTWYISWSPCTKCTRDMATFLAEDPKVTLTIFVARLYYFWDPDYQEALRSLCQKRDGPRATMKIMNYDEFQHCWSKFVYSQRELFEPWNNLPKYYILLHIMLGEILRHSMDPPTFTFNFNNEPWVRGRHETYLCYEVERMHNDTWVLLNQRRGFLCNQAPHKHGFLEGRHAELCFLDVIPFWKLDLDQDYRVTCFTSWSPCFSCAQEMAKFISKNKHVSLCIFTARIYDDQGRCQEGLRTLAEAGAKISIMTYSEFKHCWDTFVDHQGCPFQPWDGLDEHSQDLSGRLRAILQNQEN

[12] = target: T3, Orexin/Hypocretin receptor type 1 (Homo sapiens, UniProt O43613); test: Homogeneous Time Resolved Fluorescence (HTRF)-based cell-based high throughput dose response assay for antagonists of the orexin 1 receptor (OX1R; HCRTR1). [Related pubchem assays (depositor defined):AID434989, AID435008, AID463079, AID485270, AID492963, AID492964, AID492965, AID493232, AID504717, AID504718]; type: functional
T3 sequence (O43613 whole entry): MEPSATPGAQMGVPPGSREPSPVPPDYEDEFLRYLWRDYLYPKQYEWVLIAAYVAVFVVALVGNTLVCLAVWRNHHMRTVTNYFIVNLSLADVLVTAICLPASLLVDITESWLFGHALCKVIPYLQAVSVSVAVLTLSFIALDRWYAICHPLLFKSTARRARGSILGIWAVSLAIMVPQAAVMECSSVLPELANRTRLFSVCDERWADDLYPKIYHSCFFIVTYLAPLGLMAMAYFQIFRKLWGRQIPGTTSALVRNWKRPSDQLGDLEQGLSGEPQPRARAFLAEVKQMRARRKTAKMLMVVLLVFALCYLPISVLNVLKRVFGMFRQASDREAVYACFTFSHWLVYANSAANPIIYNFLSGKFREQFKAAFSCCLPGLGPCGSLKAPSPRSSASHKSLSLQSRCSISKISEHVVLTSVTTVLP

[13] = target: T3, Orexin/Hypocretin receptor type 1; test: Fluorescence-based cell-based high throughput dose response assay for antagonists of the orexin 1 receptor (OX1R; HCRTR1). [Related pubchem assays (depositor defined):AID434989, AID435008, AID463079, AID485270, AID492963, AID492964, AID492965, AID493232, AID504717, AID504718]; type: functional
[14] = target: T4, Orexin receptor type 2 (Homo sapiens, UniProt O43614); test: Counterscreen assay for antagonists of the orexin 1 receptor (OX1R; HCRTR1): Fluorescence-based cell-based dose response assay for antagonists of the orexin 2 receptor (OX2R; HCRTR2), run by assay provider.; type: functional
T4 sequence (O43614 whole entry): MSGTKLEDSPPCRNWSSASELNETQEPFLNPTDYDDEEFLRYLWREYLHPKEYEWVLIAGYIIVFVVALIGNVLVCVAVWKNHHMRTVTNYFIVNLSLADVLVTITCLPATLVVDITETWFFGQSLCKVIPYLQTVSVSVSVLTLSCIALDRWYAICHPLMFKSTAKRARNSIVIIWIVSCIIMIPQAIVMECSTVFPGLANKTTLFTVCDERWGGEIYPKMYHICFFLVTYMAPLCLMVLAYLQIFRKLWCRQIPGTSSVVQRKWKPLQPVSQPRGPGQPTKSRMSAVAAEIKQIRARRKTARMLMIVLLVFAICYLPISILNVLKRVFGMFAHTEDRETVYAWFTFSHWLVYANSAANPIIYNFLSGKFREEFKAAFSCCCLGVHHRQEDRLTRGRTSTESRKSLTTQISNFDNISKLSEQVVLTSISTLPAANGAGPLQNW

[15] = target: T4, Orexin receptor type 2; test: Counterscreen assay for antagonists of the orexin 1 receptor (OX1R; HCRTR1): Homogeneous Time Resolved Fluorescence (HTRF)-based cell-based dose response assay for antagonists of the orexin 2 receptor (OX2R; HCRTR2), run by assay provider.; type: functional

| Compound | IC50 [1] | IC50 [2] | IC50 [3] | IC50 [4] | AC50 [5] | IC50 [6] | AC50 [7] | IC50 [8] | IC50 [9] | IC50 [10] | IC50 [11] | IC50 [12] | IC50 [13] | IC50 [14] | IC50 [15] |
| --- | --- | --- | --- | --- | --- | --- | --- | --- | --- | --- | --- | --- | --- | --- | --- |
| CC1=C(C#N)c2nc(N)c(C#N)c(C)c2/C1=C\c1ccc(-c2ccccc2C(=O)O)o1 | 52.2 µM (active) | 86.6 µM (active) | > 20 µM (inactive) | 70.3 µM (active) | 15.3 µM (active) | 27.2 µM (active) | > 20 µM (inactive) | – | – | – | – | – | – | – | – |
| COC(=O)c1ccccc1NC(=O)c1sc(=S)n(C)c1N | – | – | – | – | – | – | – | > 50 µM (not active) | > 66.2 µM (inactive) | > 49.8 µM (inactive) | 67.7 µM (active) | 0.407 µM (active) | 1.41 µM (active) | 1.4 µM (active) | > 50 µM (inactive) |

— ChEMBL document CHEMBL1201862, “PubChem BioAssay data set” (2004)
